# Measurements: US10596165B2, “Combination therapies” (resTORbio, Inc., priority 2018, dated 2020)
# Experiments:
# R6/2 brain slices [1] = experiment: polyQ density (immunohistochemical detection of PolyQ inclusions) in R6/2 corticostriatal slice cultures; format: cell-based, mouse; details: DIV14 to DIV21, read at DIV21, vs DMSO treated R6/2 slices
# Method: (§1) Slice cultures were established according to described procedures. (L. Stoppini et al., J. Neurosci. Methods 37(2): 173-82 (1991) and N. Gogolla et al., Nat. Protoc. 1(3): 1165-71 (2006)). A particular cutting angle was utilized to produce brain slices with a preserved cortico-striatal pathway. Finally, slices were selected, placed on Millicel (Millipore, PICM03050) and cultured in 6-well dishes at 35° C. and 5% CO2 in the presence of 1 ml of culture medium.
# (§2) Slices were treated with different mTOR inhibitors from DIV14 to DIV21. The culture medium was exchanged every second day, and drugs were added in the fresh culture medium. We used this protocol to evaluate the action of the following mTOR inhibitors: RTB101 (50 and 300 nM in DMSO), everolimus (250 nM in DMSO), CCG168 (300 nM in DMSO), and everolimus+RTB101 (250 and 10, 250and 30 and 250 and 50 nM in DMSO). […]
# (§3) High resolution images were acquired on an upright Zeiss LSM700 confocal microscope, using a Plan-Neofluar 40x/1.3 oil immersion objective. For the quantification of the PolyQ density and DARPP-32/NeuF signal intensity, at least three confocal 3D stacks/slice were acquired in striatum for each experiment (five slices per condition), and analyzed using Imaris 4.2 (BitplaneAG) and Image J softwares. All data are expressed as mean±SEM. […]
# R6/2 brain slices [2] = experiment: Striatal degeneration: DARPP-32 intensity and neurofilament levels in R6/2 slice cultures; format: cell-based, mouse; details: single low-concentrations (everolimus 250 nM; RTB101 50 nM), DIV21
# Method: as §1, §2, §3
Structure (SMILES),polyQ density (R6/2 brain slices [1]; 50 nM RTB101 single treatment),polyQ density (R6/2 brain slices [1]; 250 nM everolimus single treatment),DARPP-32 level (R6/2 brain slices [2]),neurofilament level (R6/2 brain slices [2])
"Cn1c(=O)n(-c2ccc(C(C)(C)C#N)cc2)c2c3cc(-c4cnc5ccccc5c4)ccc3ncc21 [RTB101, 2-methyl-2-[4-(3-methyl-2-oxo-8-quinolin-3-yl-2,3-dihydro-imidazo[4,5-c]quinolin-1-yl)-phenyl]-propionitrile]",no effect,,,
"CO[C@H]1C[C@@H]2CC[C@@H](C)[C@@](O)(O2)C(=O)C(=O)N2CCCC[C@H]2C(=O)O[C@H]([C@H](C)C[C@@H]2CC[C@@H](OCCO)[C@H](OC)C2)CC(=O)[C@H](C)/C=C(\C)[C@@H](O)[C@@H](OC)C(=O)[C@H](C)C[C@H](C)/C=C/C=C/C=C/1C [everolimus, (1R,9S,12S,15R,16E,18R,19R,21R,23S,24E,26E,28E,30S,32S,35R)-1,18-dihydroxy-12-{(1R)-2-[(1S,3R,4R)-4-(2-hydroxyethoxy)-3-methoxycyclohexyl]-1-methylethyl}-19,30-dimethoxy-15,17,21,23,29,35-hexamethyl-11,36-dioxa-4-aza-tricyclo[30.3.1.04,9]hexatriaconta-16,24,26,28-tetraene-2,3,10,14,20-pentaone]",,no effect,ineffective,ineffective
